What is called IC50 is the concentration that inhibits the measured activity by half.

Active and inactive are the calls of the source. The rule behind the calls is not given here.

The first data set concerns Trypanosoma brucei brucei. In words: Antitrypanosomal activity against wild type bloodstream form of Trypanosoma brucei brucei assessed as inhibition of parasite growth after 3 days by resazurin assay. In kind it is functional, organism-based. The settings on record: 72 h.
In the case of `O=C(CN1CCN(c2ccccn2)CC1)Nc1ncc([N+](=O)[O-])s1`, the IC50 was 21.6 µM.

The test system of the next data set is Trypanosoma brucei. In words: Activity at recombinant His-tagged Trypanosoma brucei NTR assessed as oxidation of NADH/min/mg of protein after 5 mins by spectrophotometric analysis.
Conditions: not given
As for `O=C(COc1ccc(-c2ccccc2)cc1)Nc1ncc([N+](=O)[O-])s1`, the result was inactive.
As for `O=C(Cn1ccnc1[N+](=O)[O-])NCc1ccccc1`, the result was Active.
Still for that read-out and setting: under `O=C(Nc1ncc([N+](=O)[O-])s1)c1ccc(-c2ccccc2)cc1` stands “inactive”; under `O=C(CN1CCN(c2ccccn2)CC1)Nc1ncc([N+](=O)[O-])s1`, “inactive”; under `O=C(CN1CCN(C(c2ccccc2)c2ccc(Cl)cc2)CC1)Nc1ncc([N+](=O)[O-])s1` (centres undefined), “inactive”.
Turning to `O=C(CN1CCN(c2ccc(Cl)c(Cl)c2)CC1)Nc1ncc([N+](=O)[O-])s1`, the result was inactive.
For the compound `O=C(CN1CCN(c2ccc(C(F)(F)F)cc2)CC1)Nc1ncc([N+](=O)[O-])s1`, the outcome was Active.

System in a further data set: not listed separately
In words: Selectivity index, ratio of IC50 for rat L6 cells to IC50 for amastigote stage of Trypanosoma cruzi Tulahuen C4 infected in rat L6 cells. In kind it is toxicity, cell-based. The note with it: read-out: Ratio IC50.
As to `COc1ccc(N2CCN(CC(=O)Nc3ncc([N+](=O)[O-])s3)CC2)cc1`, the selectivity ratio was determined as 14.

Source of the values: ChEMBL document CHEMBL3804781, “Antitrypanosomal activity of 5-nitro-2-aminothiazole-based compounds” (Eur J Med Chem, 2016).
